Assay results from PubChem BioAssay (NCI).
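Each compound was tested at five concentrations against cells in 96-well plates for 48 hours. GI50 marks 50% less growth. At the TGI there is no net growth.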

Columns and labels:
Assay in all cases: NCI anticancer screen, dose series, 48 h
786-0 renal = test system: 786-0 renal
A498 renal = test system: A498 renal
A549 NSCLC = test system: A549 NSCLC
ACHN renal = test system: ACHN renal
BT-549 breast = test system: BT-549 breast
CAKI-1 renal = test system: CAKI-1 renal
CCRF-CEM leukemia = test system: CCRF-CEM leukemia
COLO 205 colon = test system: COLO 205 colon
DU-145 prostate = test system: DU-145 prostate
EKVX NSCLC = test system: EKVX NSCLC
HCC-2998 colon = test system: HCC-2998 colon
HCT-116 colon = test system: HCT-116 colon
HCT-15 colon = test system: HCT-15 colon
HL-60(TB) leukemia = test system: HL-60(TB) leukemia
HOP-62 NSCLC = test system: HOP-62 NSCLC
HOP-92 NSCLC = test system: HOP-92 NSCLC
HS 578T breast = test system: HS 578T breast
HT29 colon = test system: HT29 colon
IGROV1 ovarian = test system: IGROV1 ovarian
K-562 leukemia = test system: K-562 leukemia
KM12 colon = test system: KM12 colon
LOX IMVI melanoma = test system: LOX IMVI melanoma
M14 melanoma = test system: M14 melanoma
MCF7 breast = test system: MCF7 breast
MDA-MB-231 breast = test system: MDA-MB-231 breast
MOLT-4 leukemia = test system: MOLT-4 leukemia
NCI-H226 lung = test system: NCI-H226 lung
NCI-H23 lung = test system: NCI-H23 lung
NCI-H460 lung = test system: NCI-H460 lung
NCI-H522 lung = test system: NCI-H522 lung
OVCAR-3 ovarian = test system: OVCAR-3 ovarian
OVCAR-4 ovarian = test system: OVCAR-4 ovarian
OVCAR-5 ovarian = test system: OVCAR-5 ovarian
OVCAR-8 ovarian = test system: OVCAR-8 ovarian
PC-3 prostate = test system: PC-3 prostate
RPMI-8226 leukemia = test system: RPMI-8226 leukemia
RXF 393 renal = test system: RXF 393 renal
SF-268 CNS = test system: SF-268 CNS
SF-295 CNS = test system: SF-295 CNS
SF-539 CNS = test system: SF-539 CNS
SK-MEL-2 melanoma = test system: SK-MEL-2 melanoma
SK-MEL-28 melanoma = test system: SK-MEL-28 melanoma
SK-MEL-5 melanoma = test system: SK-MEL-5 melanoma
SK-OV-3 ovarian = test system: SK-OV-3 ovarian
SN12C renal = test system: SN12C renal
SNB-19 CNS = test system: SNB-19 CNS
SNB-75 CNS = test system: SNB-75 CNS
SR leukemia = test system: SR leukemia
SW-620 colon = test system: SW-620 colon
T-47D breast = test system: T-47D breast
TK-10 renal = test system: TK-10 renal
U251 CNS = test system: U251 CNS
UACC-257 melanoma = test system: UACC-257 melanoma
UACC-62 melanoma = test system: UACC-62 melanoma
UO-31 renal = test system: UO-31 renal
MALME-3M melanoma = test system: MALME-3M melanoma
MDA-MB-435 = test system: MDA-MB-435
NCI/ADR-RES ovarian = test system: NCI/ADR-RES ovarian

With `COc1ccc(S(=O)(=O)Nc2cc(/C=C\c3cc(OC)c(OC)c(OC)c3)cc(OC)c2OC)cc1OC` the GI50 (786-0 renal) was 0.444 µM, the TGI (786-0 renal) was > 100 µM and the GI50 (A498 renal) was 0.154 µM. The TGI (A498 renal) was 0.906 µM, the GI50 (A549 NSCLC) was 1.31 µM and the TGI (A549 NSCLC) was > 100 µM. The GI50 (ACHN renal) was 0.928 µM, the TGI (ACHN renal) was > 100 µM and the GI50 (BT-549 breast) was 0.664 µM. The TGI (BT-549 breast) was 90.1 µM, the GI50 (CAKI-1 renal) was 0.813 µM and the TGI (CAKI-1 renal) was > 100 µM. The GI50 (CCRF-CEM leukemia) was 0.349 µM, the TGI (CCRF-CEM leukemia) was > 100 µM and the GI50 (COLO 205 colon) was 1.28 µM. The TGI (COLO 205 colon) was > 100 µM, the GI50 (DU-145 prostate) was 0.841 µM and the TGI (DU-145 prostate) was > 100 µM. For the same compound, the GI50 (EKVX NSCLC) was 3.6 µM, the TGI (EKVX NSCLC) was > 100 µM and the GI50 (HCC-2998 colon) was 1.83 µM. The TGI (HCC-2998 colon) was > 100 µM, the GI50 (HCT-116 colon) was 0.469 µM and the TGI (HCT-116 colon) was > 100 µM. The GI50 (HCT-15 colon) was 0.671 µM, the TGI (HCT-15 colon) was > 100 µM and the GI50 (HL-60(TB) leukemia) was 0.37 µM. The TGI (HL-60(TB) leukemia) was > 100 µM, the GI50 (HOP-62 NSCLC) was 17.6 µM and the TGI (HOP-62 NSCLC) was > 100 µM. It also gave a GI50 (HOP-92 NSCLC) of 0.207 µM, a TGI (HOP-92 NSCLC) of 67.5 µM and a GI50 (HS 578T breast) of 3.42 µM. The TGI (HS 578T breast) was > 100 µM, the GI50 (HT29 colon) was 0.485 µM and the TGI (HT29 colon) was > 100 µM. The GI50 (IGROV1 ovarian) was 4.58 µM, the TGI (IGROV1 ovarian) was > 100 µM and the GI50 (K-562 leukemia) was 0.425 µM. The TGI (K-562 leukemia) was > 100 µM, the GI50 (KM12 colon) was 0.639 µM and the TGI (KM12 colon) was > 100 µM. The GI50 (LOX IMVI melanoma) was 0.472 µM, the TGI (LOX IMVI melanoma) was > 100 µM and the GI50 (M14 melanoma) was 0.419 µM. For the same compound, the TGI (M14 melanoma) was > 100 µM, the GI50 (MCF7 breast) was 0.484 µM and the TGI (MCF7 breast) was > 100 µM. For the same compound, the GI50 (MDA-MB-231 breast) was 2.43 µM, the TGI (MDA-MB-231 breast) was > 100 µM and the GI50 (MOLT-4 leukemia) was 0.702 µM. The TGI (MOLT-4 leukemia) was > 100 µM, the GI50 (NCI-H226 lung) was 1.87 µM and the TGI (NCI-H226 lung) was > 100 µM. For the same compound, the GI50 (NCI-H23 lung) was 3.31 µM, the TGI (NCI-H23 lung) was > 100 µM and the GI50 (NCI-H460 lung) was 0.399 µM. For the same compound, the TGI (NCI-H460 lung) was > 100 µM, the GI50 (NCI-H522 lung) was 0.369 µM and the TGI (NCI-H522 lung) was > 100 µM. For the same compound, the GI50 (OVCAR-3 ovarian) was 0.418 µM, the TGI (OVCAR-3 ovarian) was > 100 µM and the GI50 (OVCAR-4 ovarian) was 3.12 µM. The TGI (OVCAR-4 ovarian) was > 100 µM, the GI50 (OVCAR-5 ovarian) was 6.57 µM and the TGI (OVCAR-5 ovarian) was > 100 µM. The GI50 (OVCAR-8 ovarian) was 4.08 µM, the TGI (OVCAR-8 ovarian) was > 100 µM and the GI50 (PC-3 prostate) was 0.374 µM. For the same compound, the TGI (PC-3 prostate) was > 100 µM, the GI50 (RPMI-8226 leukemia) was 0.567 µM and the TGI (RPMI-8226 leukemia) was > 100 µM. The GI50 (RXF 393 renal) was 0.683 µM, the TGI (RXF 393 renal) was 4.55 µM and the GI50 (SF-268 CNS) was 20.8 µM. For the same compound, the TGI (SF-268 CNS) was > 100 µM, the GI50 (SF-295 CNS) was 0.47 µM and the TGI (SF-295 CNS) was 55.6 µM. For the same compound, the GI50 (SF-539 CNS) was 0.518 µM, the TGI (SF-539 CNS) was 28.6 µM and the GI50 (SK-MEL-2 melanoma) was 5.29 µM. The TGI (SK-MEL-2 melanoma) was > 100 µM, the GI50 (SK-MEL-28 melanoma) was 3.27 µM and the TGI (SK-MEL-28 melanoma) was 61.3 µM. It also gave a GI50 (SK-MEL-5 melanoma) of 0.488 µM, a TGI (SK-MEL-5 melanoma) of 13.1 µM and a GI50 (SK-OV-3 ovarian) of 11.4 µM. For the same compound, the TGI (SK-OV-3 ovarian) was > 100 µM, the GI50 (SN12C renal) was 1.18 µM and the TGI (SN12C renal) was > 100 µM. For the same compound, the GI50 (SNB-19 CNS) was 1.11 µM, the TGI (SNB-19 CNS) was > 100 µM and the GI50 (SNB-75 CNS) was 0.404 µM. For the same compound, the TGI (SNB-75 CNS) was > 100 µM, the GI50 (SR leukemia) was 0.704 µM and the TGI (SR leukemia) was > 100 µM. For the same compound, the GI50 (SW-620 colon) was 0.478 µM, the TGI (SW-620 colon) was > 100 µM and the GI50 (T-47D breast) was 27.2 µM. For the same compound, the TGI (T-47D breast) was > 100 µM, the GI50 (TK-10 renal) was 10.3 µM and the TGI (TK-10 renal) was > 100 µM. The GI50 (U251 CNS) was 0.681 µM, the TGI (U251 CNS) was > 100 µM and the GI50 (UACC-257 melanoma) was 27 µM. For the same compound, the TGI (UACC-257 melanoma) was > 100 µM, the GI50 (UACC-62 melanoma) was 0.494 µM and the TGI (UACC-62 melanoma) was > 100 µM. The GI50 (UO-31 renal) was 1.59 µM and the TGI (UO-31 renal) was > 100 µM.
`OCC1C(O)C(O)[C@@H]2SCCN12` (stereo not given in full) was tested, and the TGI (786-0 renal) was > 100 µM, the TGI (A498 renal) was > 100 µM and the TGI (A549 NSCLC) was > 100 µM. For the same compound, the TGI (ACHN renal) was > 100 µM, the TGI (BT-549 breast) was > 100 µM and the TGI (CAKI-1 renal) was > 100 µM. The TGI (CCRF-CEM leukemia) was > 100 µM, the TGI (COLO 205 colon) was > 100 µM and the TGI (DU-145 prostate) was > 100 µM. The TGI (EKVX NSCLC) was > 100 µM, the TGI (HCC-2998 colon) was > 100 µM and the TGI (HCT-116 colon) was > 100 µM. For the same compound, the TGI (HCT-15 colon) was > 100 µM, the TGI (HL-60(TB) leukemia) was > 100 µM and the TGI (HOP-62 NSCLC) was > 100 µM. For the same compound, the TGI (HOP-92 NSCLC) was > 100 µM, the TGI (HS 578T breast) was > 100 µM and the TGI (HT29 colon) was > 100 µM. The TGI (IGROV1 ovarian) was > 100 µM, the TGI (K-562 leukemia) was > 100 µM and the TGI (KM12 colon) was > 100 µM. For the same compound, the TGI (LOX IMVI melanoma) was > 100 µM, the TGI (M14 melanoma) was > 100 µM and the TGI (MALME-3M melanoma) was > 100 µM. For the same compound, the TGI (MDA-MB-231 breast) was > 100 µM, the TGI (MDA-MB-435) was > 100 µM and the TGI (MOLT-4 leukemia) was > 100 µM. The TGI (NCI-H226 lung) was > 100 µM, the TGI (NCI-H23 lung) was > 100 µM and the TGI (NCI-H460 lung) was > 100 µM. The TGI (NCI-H522 lung) was > 100 µM, the TGI (NCI/ADR-RES ovarian) was > 100 µM and the TGI (OVCAR-3 ovarian) was > 100 µM. The TGI (OVCAR-4 ovarian) was > 100 µM, the TGI (OVCAR-5 ovarian) was > 100 µM and the TGI (OVCAR-8 ovarian) was > 100 µM. The TGI (PC-3 prostate) was > 100 µM, the TGI (RPMI-8226 leukemia) was > 100 µM and the TGI (RXF 393 renal) was > 100 µM. The TGI (SF-268 CNS) was > 100 µM, the TGI (SF-295 CNS) was > 100 µM and the TGI (SK-MEL-2 melanoma) was > 100 µM. The TGI (SK-MEL-28 melanoma) was > 100 µM, the TGI (SK-MEL-5 melanoma) was > 100 µM and the TGI (SK-OV-3 ovarian) was > 100 µM. The TGI (SNB-19 CNS) was > 100 µM, the TGI (SNB-75 CNS) was > 100 µM and the TGI (SR leukemia) was > 100 µM. The TGI (SW-620 colon) was > 100 µM, the TGI (T-47D breast) was > 100 µM and the TGI (TK-10 renal) was > 100 µM. For the same compound, the TGI (U251 CNS) was > 100 µM, the TGI (UACC-257 melanoma) was > 100 µM and the TGI (UACC-62 melanoma) was > 100 µM. For the same compound, the TGI (UO-31 renal) was > 100 µM.
